From PubChem BioAssay AID220 (DTP/NCI, 2004)
Values joined by “and” are separate entries in the source; they are usually repeats but may differ in a detail not shown here. Identical values can stand only once. Results filed as inconclusive are left out.

Tested on: CD8F1 mice, subcutaneous mammary adenocarcinoma, T/C%
Assay: NCI In Vivo Anticancer Drug Screen. Data for tumor model Mammary Adenocarcinoma CD8F1 (subcutaneous) in CD8F1
Settings: higher = larger tumour
In short: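 Ratio of treated to vehicle-control outcome, based on either survival or tumor size, in mice bearing transplantable tumors given the test compound.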

N=C(N)Sc1ccccn1
T/C (endpoint: median tumor weight (est.), dose: 12.5 mg/kg/injection, schedule: Q07DX005 (ip), vehicle: suspension in saline): 156 % of control
T/C (endpoint: median tumor weight (est.), dose: 25.0 mg/kg/injection, schedule: Q07DX005 (ip), vehicle: suspension in saline): 113 % of control
T/C (endpoint: median tumor weight (est.), dose: 50.0 mg/kg/injection, schedule: Q07DX005 (ip), vehicle: suspension in saline): 103 % of control
T/C (endpoint: median tumor weight (est.), dose: 400.0 mg/kg/injection, schedule: Q07DX005 (ip), vehicle: suspension in saline): 121 % of control

S=C1CCCCN1
T/C (endpoint: median tumor weight change, dose: 37.5 mg/kg/injection, schedule: Q01DX001 (ip), vehicle: distilled water + Tween-80 + alcohol): 73 % of control
T/C (endpoint: median tumor weight change, dose: 75.0 mg/kg/injection, schedule: Q01DX001 (ip), vehicle: distilled water + Tween-80 + alcohol): 111 % of control
T/C (endpoint: median tumor weight change, dose: 150.0 mg/kg/injection, schedule: Q01DX001 (ip), vehicle: distilled water + Tween-80 + alcohol): 86 % of control

CCN(CC)Cc1cc2[nH]c3c4ccc(Cl)cc4ncc3c2cc1OC
T/C (endpoint: median tumor weight change, dose: 31.0 mg/kg/injection, schedule: Q01DX001 (ip), vehicle: saline with Tween-80): 47 % of control
T/C (endpoint: median tumor weight change, dose: 62.0 mg/kg/injection, schedule: Q01DX001 (ip), vehicle: saline with Tween-80): 109 % of control
T/C (endpoint: median tumor weight change, dose: 125.0 mg/kg/injection, schedule: Q01DX001 (ip), vehicle: saline with Tween-80): 118 % of control

CSCS(=O)C[C@H](CO)NC(=O)/C=C/c1c(C)[nH]c(=O)[nH]c1=O (some centres undefined)
T/C (endpoint: median tumor weight (est.), dose: 0.12 mg/kg/injection, schedule: Q07DX005 (ip), vehicle: saline): 100 % of control
T/C (endpoint: median tumor weight (est.), dose: 0.25 mg/kg/injection, schedule: Q07DX005 (ip), vehicle: saline): 76 % of control
T/C (endpoint: median tumor weight (est.), dose: 0.5 mg/kg/injection, schedule: Q07DX005 (ip), vehicle: saline): 50 % of control
T/C (endpoint: median tumor weight (est.), dose: 4.0 mg/kg/injection, schedule: Q07DX005 (ip), vehicle: saline): 10 % of control

[Cl][Mn][Cl]
T/C (endpoint: median tumor weight (est.), dose: 64.0 mg/kg/injection, schedule: Q07DX005 (ip), vehicle: saline): 111 % of control
T/C (endpoint: median tumor weight (est.), dose: 128.0 mg/kg/injection, schedule: Q07DX005 (ip), vehicle: saline): 66 % of control

COc1cc2c[n+](C)c3c4cc5c(cc4ccc3c2cc1OC)OCO5
T/C (endpoint: median tumor weight (est.), dose: 10.0 mg/kg/injection, schedule: Q07DX005 (ip), vehicle: saline with Tween-80): 78 % of control
T/C (endpoint: median tumor weight (est.), dose: 40.0 mg/kg/injection, schedule: Q07DX005 (ip), vehicle: saline with Tween-80): 31 % of control
T/C (endpoint: median tumor weight (est.), dose: 80.0 mg/kg/injection, schedule: Q07DX005 (ip), vehicle: saline with Tween-80): 4 % of control

CC(C)NCC(O)COc1ccc(O)c(O)c1 (centres undefined)
T/C (endpoint: median tumor weight change, dose: 1.5 mg/kg/injection, schedule: Q01DX001 (ip), vehicle: saline): 84 % of control
T/C (endpoint: median tumor weight change, dose: 6.0 mg/kg/injection, schedule: Q01DX001 (ip), vehicle: saline): 89 % of control and 105 % of control
T/C (endpoint: median tumor weight change, dose: 12.0 mg/kg/injection, schedule: Q01DX001 (ip), vehicle: saline): 72 % of control and 97 % of control
T/C (endpoint: median tumor weight change, dose: 24.0 mg/kg/injection, schedule: Q01DX001 (ip), vehicle: saline): 102 % of control
T/C (endpoint: median tumor weight change, dose: 125.0 mg/kg/injection, schedule: Q01DX001 (ip), vehicle: saline): 77 % of control and 96 % of control

CC(=O)Nc1ccc(S(=O)(=O)CO)cc1
T/C (endpoint: median tumor weight (est.), dose: 12.5 mg/kg/injection, schedule: Q07DX005 (ip), vehicle: saline with Tween-80): 222 % of control and 77 % of control
T/C (endpoint: median tumor weight (est.), dose: 25.0 mg/kg/injection, schedule: Q07DX005 (ip), vehicle: saline with Tween-80): 174 % of control and 409 % of control
T/C (endpoint: median tumor weight (est.), dose: 50.0 mg/kg/injection, schedule: Q07DX005 (ip), vehicle: saline with Tween-80): 189 % of control and 268 % of control
T/C (endpoint: median tumor weight (est.), dose: 100.0 mg/kg/injection, schedule: Q07DX005 (ip), vehicle: saline with Tween-80): 211 % of control and 271 % of control
T/C (endpoint: median tumor weight (est.), dose: 200.0 mg/kg/injection, schedule: Q07DX005 (ip), vehicle: saline with Tween-80): 186 % of control and 403 % of control
T/C (endpoint: median tumor weight (est.), dose: 400.0 mg/kg/injection, schedule: Q07DX005 (ip), vehicle: saline with Tween-80): 165 % of control and 281 % of control

CCC/C=C/C=C/C(=O)OC1/C(=C/C(=O)OC)CC2CC(C(C)O)OC(=O)CC(O)CC3CC(OC(C)=O)C(C)(C)C(O)(CC4C/C(=C/C(=O)OC)CC(/C=C/C(C)(C)C1(O)O2)O4)O3 (centres undefined)
T/C (endpoint: median tumor weight change, dose: 0.02 mg/kg/injection, schedule: Q01DX001 (ip), vehicle: saline + alcohol): 63 % of control
T/C (endpoint: median tumor weight change, dose: 0.04 mg/kg/injection, schedule: Q01DX001 (ip), vehicle: saline + alcohol): 115 % of control
T/C (endpoint: median tumor weight change, dose: 0.09 mg/kg/injection, schedule: Q01DX001 (ip), vehicle: saline + alcohol): 95 % of control
T/C (endpoint: median tumor weight change, dose: 0.19 mg/kg/injection, schedule: Q01DX001 (ip), vehicle: saline + alcohol): 22 % of control

CCCCCn1c(C)cc(/C=C\c2ccc3cc(C)ccc3[n+]2C)c1C
T/C (endpoint: median tumor weight (est.), dose: 39.0 micrograms/kg/injection, schedule: Q07DX005 (ip), vehicle: Klucel (hydroxypropylcellulose) (HPC)): 87 % of control
T/C (endpoint: median tumor weight (est.), dose: 78.0 micrograms/kg/injection, schedule: Q07DX005 (ip), vehicle: Klucel (hydroxypropylcellulose) (HPC)): 72 % of control
T/C (endpoint: median tumor weight (est.), dose: 156.0 micrograms/kg/injection, schedule: Q07DX005 (ip), vehicle: Klucel (hydroxypropylcellulose) (HPC)): 76 % of control
T/C (endpoint: median tumor weight (est.), dose: 312.0 micrograms/kg/injection, schedule: Q07DX005 (ip), vehicle: Klucel (hydroxypropylcellulose) (HPC)): 111 % of control
T/C (endpoint: median tumor weight (est.), dose: 625.0 micrograms/kg/injection, schedule: Q07DX005 (ip), vehicle: Klucel (hydroxypropylcellulose) (HPC)): 107 % of control
